From patent publication US12043632B2, “6-heteroaryloxy benzimidazoles and azabenzimidazoles as JAK2 inhibitors” (Ajax Therapeutics, Inc., priority 2020, dated 2024)

What follows are molecules tested against T1, JAK2 (JH1domain-catalytic, Y1007F,Y1008F) kinase (Homo sapiens, UniProt O60674, Y1007F/Y1008F) (assay: JAK2 JH1 Domain Binding Assay). Settings: qPCR readout.
T1 construct: JAK2 (JH1domain-catalytic, Y1007F,Y1008F) kinase was expressed as N-terminal fusion; made in house; host or cells: transiently transfected HEK293 cells
T1 sequence (O60674 849-1124 Y1007F/Y1008F limits assumed): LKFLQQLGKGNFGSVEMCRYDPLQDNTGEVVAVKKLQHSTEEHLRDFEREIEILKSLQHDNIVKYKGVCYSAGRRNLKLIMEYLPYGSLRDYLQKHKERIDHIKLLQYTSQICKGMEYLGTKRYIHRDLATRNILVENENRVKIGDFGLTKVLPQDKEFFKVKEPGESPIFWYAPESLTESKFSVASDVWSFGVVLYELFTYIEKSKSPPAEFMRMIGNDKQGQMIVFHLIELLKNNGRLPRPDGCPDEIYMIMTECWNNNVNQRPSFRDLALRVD

Compared with Cn1c(Nc2cc(C(C)(C)C)n(CCC#N)n2)nc2ncc(Oc3cnn4ccncc34)c(Cl)c21 [Example I-61, 3-(5-(tert-butyl)-3-((7-chloro-1-methyl-6-(pyrazolo[1,5-a]pyrazin-3-yloxy)-1H-imidazo[4,5-b]pyridin-2-yl)amino)-1H-pyrazol-1-yl)propanenitrile], Cn1c(Nc2cc(C(C)(C)C)n(CC#N)n2)nc2ncc(Oc3cnn4ccncc34)c(C(F)F)c21 [Example I-63, 2-(5-(tert-butyl)-3-((7-(difluoromethyl)-1-methyl-6-(pyrazolo[1,5-a]pyrazin-3-yloxy)-1H-imidazo[4,5-b]pyridin-2-yl)amino)-1H-pyrazol-1-yl)acetonitrile] is higher in Kd: less than 0.01 µM for the first, 0.01 to 0.05 µM for the second. The first binds more tightly here.

First: COc1c(Oc2cnn3ccncc23)cnc2nc(Nc3cc(C(C)(C)C)n([C@@H]4CCN(CCF)C4)n3)n(C)c12 [Example I-62, (R)—N-(5-(tert-butyl)-1-(1-(2-fluoroethyl)pyrrolidin-3-yl)-1H-pyrazol-3-yl)-7-methoxy-1-methyl-6-(pyrazolo[1,5-a]pyrazin-3-yloxy)-1H-imidazo[4,5-b]pyridin-2-amine]
Second: Cn1c(Nc2cc(C(C)(C)C)n(C3COC3)n2)nc2ncc(Oc3cnn4ccncc34)c(Cl)c21 [Example I-86, N-(5-(tert-butyl)-1-(oxetan-3-yl)-1H-pyrazol-3-yl)-7-chloro-1-methyl-6-(pyrazolo[1,5-a]pyrazin-3-yloxy)-1H-imidazo[4,5-b]pyridin-2-amine]
The Kd of the first is higher: 0.01 to 0.05 µM for the first, less than 0.01 µM for the second.

COc1c(Oc2cnn3ccncc23)cnc2nc(Nc3cc(C4CC4)cn(C)c3=O)n(C)c12 [Example I-64, 5-cyclopropyl-3-((7-methoxy-1-methyl-6-(pyrazolo[1,5-a]pyrazin-3-yloxy)-1H-imidazo[4,5-b]pyridin-2-yl)amino)-1-methylpyridin-2(1H)-one] and COc1c(Oc2cnn3ccncc23)cnc2nc(Nc3cc(C4CC4)cn([C@H]4C[C@@H](O)C4)c3=O)n(C)c12 [Example I-74, cis-5-cyclopropyl-1-(3-hydroxycyclobutyl)-3-((7-methoxy-1-methyl-6-(pyrazolo[1,5-a]pyrazin-3-yloxy)-1H-imidazo[4,5-b]pyridin-2-yl)amino)pyridin-2(1H)-one] cannot be ordered by Kd: less than 0.01 µM for the first, less than 0.01 µM for the second.

Cn1c(Nc2cc(C3CC3)cn(CCO)c2=O)nc2ncc(Oc3cnn4ccncc34)c(Cl)c21 [Example I-65, 3-((7-chloro-1-methyl-6-(pyrazolo[1,5-a]pyrazin-3-yloxy)-1H-imidazo[4,5-b]pyridin-2-yl)amino)-5-cyclopropyl-1-(2-hydroxyethyl)pyridin-2(1H)-one] and Cn1c(Nc2cc(C3CC3)cn(CCO)c2=O)nc2ncc(Oc3cnn4ccccc34)c(Cl)c21 [Example I-78, 3-((7-chloro-1-methyl-6-(pyrazolo[1,5-a]pyridin-3-yloxy)-1H-imidazo[4,5-b]pyridin-2-yl)amino)-5-cyclopropyl-1-(2-hydroxyethyl)pyridin-2(1H)-one] cannot be ordered by Kd: less than 0.01 µM for the first, less than 0.01 µM for the second.

First: Cn1c(Nc2cc(C(C)(C)C)n([C@H]3CCO[C@@H]3CO)n2)nc2ncc(Oc3cnn4ccncc34)c(Cl)c21 [Example I-66, ((2S,3S)-3-(5-(tert-butyl)-3-((7-chloro-1-methyl-6-(pyrazolo[1,5-a]pyrazin-3-yloxy)-1H-imidazo[4,5-b]pyridin-2-yl)amino)-1H-pyrazol-1-yl)tetrahydrofuran-2-yl)methanol]
Second: Cn1c(Nc2cc(C(C)(C)C)n([C@H]3CCO[C@@H]3CO)n2)nc2ncc(Oc3cnn4ccnc4c3)c(Cl)c21 [Example I-83, ((2S,3S)-3-(5-(tert-butyl)-3-((7-chloro-6-(imidazo[1,2-b]pyridazin-7-yloxy)-1-methyl-1H-imidazo[4,5-b]pyridin-2-yl)amino)-1H-pyrazol-1-yl)tetrahydrofuran-2-yl)methanol]
The Kd of the first is lower: less than 0.01 µM for the first, 0.01 to 0.05 µM for the second. The first binds more tightly here.

COc1c(Oc2cnn3ccncc23)cnc2nc(Nc3cc(C4CC4)cn(C4CCOCC4)c3=O)n(C)c12 [Example I-67, 5-cyclopropyl-3-((7-methoxy-1-methyl-6-(pyrazolo[1,5-a]pyrazin-3-yloxy)-1H-imidazo[4,5-b]pyridin-2-yl)amino)-1-(tetrahydro-2H-pyran-4-yl)pyridin-2(1H)-one] and Cn1c(Nc2cc(C3CC3)cn(C3CCOCC3)c2=O)nc2ncc(Oc3cnn4ccncc34)c(Cl)c21 [Example I-68, 3-((7-chloro-1-methyl-6-(pyrazolo[1,5-a]pyrazin-3-yloxy)-1H-imidazo[4,5-b]pyridin-2-yl)amino)-5-cyclopropyl-1-(tetrahydro-2H-pyran-4-yl)pyridin-2(1H)-one] cannot be ordered by Kd: less than 0.01 µM for the first, less than 0.01 µM for the second.

Cn1c(Nc2cc(C3CC3)cn([C@H]3C[C@@H](O)C3)c2=O)nc2ncc(Oc3cnn4ccncc34)c(Cl)c21 [Example I-70, 3-((7-chloro-1-methyl-6-(pyrazolo[1,5-a]pyrazin-3-yloxy)-1H-imidazo[4,5-b]pyridin-2-yl)amino)-5-cyclopropyl-1-((1s,3s)-3-hydroxycyclobutyl)pyridin-2(1H)-one] and Cn1c(Nc2cc(C3CC3)cn([C@H]3C[C@H](C#N)C3)c2=O)nc2ncc(Oc3cnn4ccncc34)c(Cl)c21 [Example I-77, trans-3-(3-((7-chloro-1-methyl-6-(pyrazolo[1,5-a]pyrazin-3-yloxy)-1H-imidazo[4,5-b]pyridin-2-yl)amino)-5-cyclopropyl-2-oxopyridin-1(2H)-yl)cyclobutane-1-carbonitrile] cannot be ordered by Kd: less than 0.01 µM for the first, less than 0.01 µM for the second.

COc1c(Oc2cnn3ccncc23)cnc2nc(Nc3cc(C4CC4)cn([C@H]4C[C@H](O)C4)c3=O)n(C)c12 [Example I-75, trans-5-cyclopropyl-1-(3-hydroxycyclobutyl)-3-((7-methoxy-1-methyl-6-(pyrazolo[1,5-a]pyrazin-3-yloxy)-1H-imidazo[4,5-b]pyridin-2-yl)amino)pyridin-2(1H)-one] and Cn1c(Nc2cc(C3CC3)cn([C@H]3C[C@@H](C#N)C3)c2=O)nc2ncc(Oc3cnn4ccncc34)c(Cl)c21 [Example I-80, cis-3-(3-((7-chloro-1-methyl-6-(pyrazolo[1,5-a]pyrazin-3-yloxy)-1H-imidazo[4,5-b]pyridin-2-yl)amino)-5-cyclopropyl-2-oxopyridin-1(2H)-yl)cyclobutane-1-carbonitrile] cannot be ordered by Kd: less than 0.01 µM for the first, less than 0.01 µM for the second.

Cn1c(Nc2cc(C3CC3)cn([C@H]3C[C@H](O)C3)c2=O)nc2ncc(Oc3cnn4ccccc34)c(Cl)c21 [Example I-79, trans-3-((7-chloro-1-methyl-6-(pyrazolo[1,5-a]pyridin-3-yloxy)-1H-imidazo[4,5-b]pyridin-2-yl)amino)-5-cyclopropyl-1-(3-hydroxycyclobutyl)pyridin-2(1H)-one] and Cn1c(Nc2cc(C3CC3)cn(C3CC4(COC4)C3)c2=O)nc2ncc(Oc3cnn4ccncc34)c(Cl)c21 [Example I-85, 3-((7-chloro-1-methyl-6-(pyrazolo[1,5-a]pyrazin-3-yloxy)-1H-imidazo[4,5-b]pyridin-2-yl)amino)-5-cyclopropyl-1-(2-oxaspiro[3.3]heptan-6-yl)pyridin-2(1H)-one] cannot be ordered by Kd: less than 0.01 µM for the first, less than 0.01 µM for the second.

Cn1c(Nc2cc(C(C)(C)C)n([C@H]3CCO[C@@H]3CO)n2)nc2ncc(Oc3cnc4ccnn4c3)c(Cl)c21 [Example I-82, ((2S,3S)-3-(5-(tert-butyl)-3-((7-chloro-1-methyl-6-(pyrazolo[1,5-a]pyrimidin-6-yloxy)-1H-imidazo[4,5-b]pyridin-2-yl)amino)-1H-pyrazol-1-yl)tetrahydrofuran-2-yl)methanol] and Cn1c(Nc2cc(C(C)(C)C)n([C@H]3CCO[C@@H]3CO)n2)nc2ncc(Oc3cnc4cnc(C5CC5)n4c3)c(Cl)c21 [Example I-87, ((2S,3S)-3-(5-(tert-butyl)-3-((7-chloro-6-((6-cyclopropylimidazo[1,5-a]pyrimidin-3-yl)oxy)-1-methyl-1H-imidazo[4,5-b]pyridin-2-yl)amino)-1H-pyrazol-1-yl)tetrahydrofuran-2-yl)methanol] fall in the same range of Kd: 0.01 to 0.05 µM for the first, 0.01 to 0.05 µM for the second.

Cn1cc(C2CC2)cc(Nc2nc3ncc(Oc4cnc5cnc(C6CC6)n5c4)c(Cl)c3n2C)c1=O [Example I-84, 3-((7-chloro-6-((6-cyclopropylimidazo[1,5-a]pyrimidin-3-yl)oxy)-1-methyl-1H-imidazo[4,5-b]pyridin-2-yl)amino)-5-cyclopropyl-1-methylpyridin-2(1H)-one] and Cn1cc(C2CC2)cc(Nc2nc3ncc(Oc4cnc5[nH]ncc5c4)c(Cl)c3n2C)c1=O [Example I-92, 3-((6-((1H-pyrazolo[3,4-b]pyridin-5-yl)oxy)-7-chloro-1-methyl-1H-imidazo[4,5-b]pyridin-2-yl)amino)-5-cyclopropyl-1-methylpyridin-2(1H)-one] cannot be ordered by Kd: less than 0.01 µM for the first, less than 0.01 µM for the second.

First: Cn1c(Nc2cc(C(C)(C)C)n([C@H]3C[C@H](O)C3)n2)nc2ncc(Oc3cnc4cnc(C5CC5)n4c3)c(Cl)c21 [Example I-88, trans-3-(5-(tert-butyl)-3-((7-chloro-6-((6-cyclopropylimidazo[1,5-a]pyrimidin-3-yl)oxy)-1-methyl-1H-imidazo[4,5-b]pyridin-2-yl)amino)-1H-pyrazol-1-yl)cyclobutan-1-ol]
Second: CC(=O)N1CC(n2nc(Nc3nc4ncc(Oc5cnn6ccncc56)c(Cl)c4n3C)cc2C(C)(C)C)C1 [Example I-94, 1-(3-(5-(tert-butyl)-3-((7-chloro-1-methyl-6-(pyrazolo[1,5-a]pyrazin-3-yloxy)-1H-imidazo[4,5-b]pyridin-2-yl)amino)-1H-pyrazol-1-yl)azetidin-1-yl)ethan-1-one]
The Kd of the first is higher: 0.01 to 0.05 µM for the first, less than 0.01 µM for the second. The second binds more tightly here.

Cn1c(Nc2cc(C(F)(F)F)cn(C3CC4(COC4)C3)c2=O)nc2ncc(Oc3cnn4ccncc34)c(Cl)c21 [Example I-90, 3-((7-chloro-1-methyl-6-(pyrazolo[1,5-a]pyrazin-3-yloxy)-1H-imidazo[4,5-b]pyridin-2-yl)amino)-1-(2-oxaspiro[3.3]heptan-6-yl)-5-(trifluoromethyl)pyridin-2(1H)-one] and Cn1c(Nc2cc(C(F)(F)F)cn(CCCN3CCOCC3)c2=O)nc2ncc(Oc3cnn4ccncc34)c(Cl)c21 [Example I-91, 3-((7-chloro-1-methyl-6-(pyrazolo[1,5-a]pyrazin-3-yloxy)-1H-imidazo[4,5-b]pyridin-2-yl)amino)-1-(3-morpholinopropyl)-5-(trifluoromethyl)pyridin-2(1H)-one] cannot be ordered by Kd: less than 0.01 µM for the first, less than 0.01 µM for the second.
